Measured values published in patent US12215460B2, “Methods of microbial control” (Clean Chemistry, Inc., priority 2015, dated 2025).
Where two headings read alike, the source gives them in different places.

Legend:
microbes = assay: Microbial control in water at slightly alkaline pH, oxidant comparison; format: cell-based
From the text: In some embodiments, microbial control in water at slightly alkaline pH was compared between peracetate oxidant, […] bleach, peracetic acid and […] dioxide. Alkaline pH is encountered in a variety of applications where microbial control and sanitization is needed, including pulp and paper processing, cooling towers, water treatment and chill tanks in poultry processing. […].

[1] = TOX formation tests in pulp bleaching
Method: […]. The pulp slurry was put into a 1 L glass beaker in a heated water bath. The beakers were fitted with liquid-tight covers to minimize evaporative losses of water and oxidants. After the pulp slurry was heated the oxidant solution and additional salt water was added to make a final composition of about 855 g water, 45.0 g of air-dry pulp, 8.55 g NaCl and the oxidant. The oxidant was mixed into the pulp slurry thoroughly with a stainless steel spatula for several minutes and then mixed periodically throughout the 2 hour bleaching period. The pH of the slurry was left at the natural pH created by each oxidant in the presence of the pulp.
The amount of oxidant used in each test was enough to partially bleach the amount of lignin present so that the oxidant was the limiting reagent. When peracetate oxidant was combined with Kraft pulp the evolution of some gas was observed accompanied by rapid bleaching that was clearly visible within the first few minutes. […]. After 2 hours at 50° C. the pulp slurries were vacuum filtered through a Buchner funnel over a medium porosity filter paper. There was no residual oxidant present in the filtrates. The four filtrate solutions recovered were put into amber glass bottles and preserved with sulfuric acid for total organic halide analyses, which were conducted by a third party laboratory.

[2] = Bleaching of Kraft pulp, hand sheet tests
ORP of oxidants at pH 7 = format: physicochemical; settings: 29 mM
[3] = flowback water, 22 C, pH 6.5; initial 80 mg/L (peracetate as PAA; PAA with 112 mg/L H2O2)
[4] = Thermal activation in clean water at pH 8.5 and 50 C; format: physicochemical; settings: distilled water
[5] = Entry 2, bleach time 30 min, 1.13 g/L PAA equiv., initial pH 8.2
[6] = Entry 8, 30 min, 4.0 g/L, initial pH 8.0
[7] = Entry 9, 30 min, 4.0 g/L, initial pH 8.9

[O][Cl+][O-] [chlorine dioxide]
performance as antimicrobial disinfectant (microbes): performed well
Normalized TOX [1]: 17.7 mg/L per 1000 mg/L oxidant
TOX [1]: 17.7 mg/L
Final ORP [2, 5]: 896 mV vs SHE
Final pH [2, 5]: 6.4

OO [hydrogen peroxide]
ORP (ORP of oxidants at pH 7): about 0.5 V (vs SHE)

OCl [hypochlorous acid]
ORP (ORP of oxidants at pH 7): over 1.1 V (vs SHE)

CC(=O)OO [peracetic acid]
performance as antimicrobial disinfectant (microbes): lowest performance
TOX [3]: BDL (BDL = below detection limit, less than 0.05 mg/L)
Normalized TOX ([1]; Kraft pulp 5% consistency, 1.0% NaCl, 50 C, 2 hours): 4.5 mg/L per 1000 mg/L oxidant
TOX ([1]; Kraft pulp 5% consistency, 1.0% NaCl, 50 C, 2 hours, initial 4000 mg/L peracetate (as PAA equivalents), 4000 PAA + 5400 H2O2, 1000 ClO2, blank 0.68): 17.8 mg/L
time peracetic acid and hydrogen peroxide concentrations were stable [4]: about 90 minutes
ORP ([4]; constant during the test): around 280 mV vs SHE
Final ORP ([2]; Entry 7, 30 min, 4.0 g/L, initial pH 7.0): 502 mV vs SHE
Final pH ([2]; Entry 7, 30 min, 4.0 g/L, initial pH 7.0, stock 11.4% PAA and 15.6% H2O2): 7.0
Final ORP [2, 6]: 406 mV vs SHE
Final pH [2, 6]: 8.0
Final ORP [2, 7]: 253 mV vs SHE
Final pH [2, 7]: 8.8

sodium peracetate [peracetate oxidant]
total organic halides (TOX) relative to chlorine dioxide [1]: about ten times less
